The values that follow come from BindingDB's records for doi:10.1021/jm050965z (Millennium Pharmaceuticals, 2006).

What is called IC50 is the concentration that inhibits the measured activity by half. A lower IC50 goes with higher potency.

The nature of this test: Inhibition of I309-induced chemotaxis in L1.2 cells expressing CCR8.

In turn, `COc1ccccc1Oc1cccc(CN2CCC(NC(=O)Cc3ccccc3)CC2)c1` [N-{1-[3-(2-methoxy-phenoxy)-benzyl]-piperidin-4-yl}-2-phenyl-acetamide] returned an IC50 of 55 nM.

The compound `CCN1CCC(C(=O)NC2CCN(Cc3cccc(Oc4ccccc4OC)c3)CC2)(c2ccccc2)CC1` [1-ethyl-4-phenyl-piperidine-4-carboxylic acid {1-[3-(2-methoxy-phenoxy)-benzyl]-piperidin-4-yl}-amide] registered an IC50 of 56 nM.

Turning to `CCN1CCC(C(=O)NC2CCN(Cc3cccc(Oc4ccccc4Cl)c3)CC2)(c2ccccc2)CC1` [1-ethyl-4-phenyl-piperidine-4-carboxylic acid {1-[3-(2-chloro-phenoxy)-benzyl]-piperidin-4-yl}-amide], inhibition was half-maximal at 43 nM (IC50).

Turning to `O=C(NC1CCN(Cc2cccc(Oc3ccccc3Cl)c2)CC1)C1(c2ccccc2)CCNC1` (racemic) [(+/-) 3-phenyl-pyrrolidine-3-carboxylic acid {1-[3-(2-chloro-phenoxy)-benzyl]-piperidin-4-yl}-amide], the IC50 came to 22 nM.

Take `CC(C)(C(=O)O)N1CCC(C(=O)NC2CCN(Cc3cccc(Oc4ccccc4Cl)c3)CC2)(c2ccccc2)C1` (configuration not stated) [2-(3-((1-(3-(2-chlorophenoxy)benzyl)piperidin-4-yl)carbamoyl)-3-phenylpyrrolidin-1-yl)-2-methylpropanoic acid]: the IC50 was 1 nM.

With `CC(C)(C(=O)O)N1CCC(C(=O)NC2CCN(Cc3cccc(Oc4ccccc4Cl)c3)CC2)(c2ccccc2)CC1` [2-(4-{1-[3-(2-chloro-phenoxy)-benzyl]-piperidin-4-ylcarbamoyl}-4-phenyl-piperidin-1-yl)-2-methyl-propionic acid], the IC50 stood at 4 nM.

As for `COc1ccccc1Oc1cccc(CN2CCC(NC(=O)C3(c4ccccc4)CCNCC3)CC2)c1` [4-phenyl-piperidine-4-carboxylic acid {1-[3-(2-methoxy-phenoxy)-benzyl]-piperidin-4-yl}-amide], the 50% inhibitory concentration (IC50) came out at 11 nM.
